Source: PubChem BioAssay AID652002 (Sanford-Burnham Center for Chemical Genomics, 2013)
Calls of active or inactive are those of the source. The rule behind the calls is not given here.

Experiments:
NB7+Caspase-8 = assay: TRAIL sensitizers in caspase-8 expressing neuroblastoma cells, dose response, NB7 cells plus caspase-8, luminescence, panel (AID 652002); details: NB7 neuroblastoma +caspase-8, TRAIL sensitization, luminescence viability, with TRAIL
[1] = as above; details: NB7 neuroblastoma +caspase-8, no TRAIL, compound-alone cytotoxicity counter-screen, luminescence viability, NB7+Caspase-8
[2] = molecular target: Tumor necrosis factor receptor superfamily member 10B (Homo sapiens) (UniProt O14763); assay: as above; details: NB7 neuroblastoma +caspase-8, TRAIL sensitization, luminescence viability; NB7+Caspase-8; with TRAIL, mean of runs
[3] = run 1, single replicate panel EC50
[4] = run 2, single replicate panel EC50

Chain of Tumor necrosis factor receptor superfamily member 10B (Homo sapiens) (O14763 whole entry, looked up): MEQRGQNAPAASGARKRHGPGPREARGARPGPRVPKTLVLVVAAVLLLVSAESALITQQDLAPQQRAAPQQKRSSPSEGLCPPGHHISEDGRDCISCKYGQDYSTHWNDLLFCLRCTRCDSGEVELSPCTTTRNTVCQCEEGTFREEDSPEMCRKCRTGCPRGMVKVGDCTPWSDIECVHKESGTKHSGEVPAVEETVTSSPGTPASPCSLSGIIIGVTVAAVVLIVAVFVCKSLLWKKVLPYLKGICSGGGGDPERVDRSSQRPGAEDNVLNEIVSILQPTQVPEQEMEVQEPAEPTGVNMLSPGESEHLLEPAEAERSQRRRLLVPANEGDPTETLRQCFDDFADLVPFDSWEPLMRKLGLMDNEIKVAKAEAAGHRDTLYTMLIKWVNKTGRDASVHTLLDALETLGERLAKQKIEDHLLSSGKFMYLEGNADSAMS

Row | Compound | EC50 (NB7+Caspase-8; [3]) | EC50 (NB7+Caspase-8; [4]) | EC50 ([1]; mean of runs) | EC50 [1, 3] | EC50 [1, 4] | EC50 [2]
1 | CCOc1ccc(NC(=O)c2ccco2)cc1 | > 12.5 µM | 6.9 µM | inactive | 6.87 µM | 10.7 µM | inactive
2 | CC(C)(C)OC(=O)[C@H](Cc1ccccc1)NC(=O)c1[nH]cnc1C(=O)Nc1ccccc1F | > 12.5 µM | > 12.5 µM | > 12.5 µM (inactive) | > 12.5 µM | > 12.5 µM | > 12.5 µM (inactive)
3 | O=C1c2ccc3c4c(ccc(c24)C(=O)N1c1cccc(O)c1)C(=O)N(c1cccc(O)c1)C3=O | 2.35 µM | 12.4 µM | > 12.5 µM (inactive) | > 12.5 µM | > 12.5 µM | inactive
4 | Cc1cc(-c2ccccc2)nc(Nc2nc3c(C)cccc3c(=O)[nH]2)n1 | > 12.5 µM | > 12.5 µM | > 12.5 µM (inactive) | > 12.5 µM | > 12.5 µM | > 12.5 µM (inactive)
5 | C#Cc1ccc(NC(=O)C2(C)CCN2C(=O)Cc2ccc(C(C)C)cc2)cc1 (stereo not given) | > 12.5 µM | > 12.5 µM | inactive | > 12.5 µM | 8.26 µM | > 12.5 µM (inactive)
6 | Cc1cc(NC(=O)C2CCCC2)nc2c1c(=O)oc1ccccc12 | > 12.5 µM | > 12.5 µM | > 12.5 µM (inactive) | > 12.5 µM | > 12.5 µM | > 12.5 µM (inactive)
7 | COc1cc(NC(=O)c2[nH]cnc2C(N)=O)cc(C(=O)Nc2cccc(C(F)(F)F)c2)c1 | > 12.5 µM | 8.91 µM | inactive | > 12.5 µM | 10.4 µM | inactive
8 | COC(=O)c1ccc(/C=C/c2nc3ccccc3c(=O)[nH]2)cc1 | > 12.5 µM | > 12.5 µM | > 12.5 µM (inactive) | > 12.5 µM | > 12.5 µM | > 12.5 µM (inactive)
9 | C/C(=N\NC(=O)c1csc(C)c1C)c1ccco1 | > 12.5 µM | > 12.5 µM | > 12.5 µM (inactive) | > 12.5 µM | > 12.5 µM | > 12.5 µM (inactive)
10 | O=C(Nc1ccc(C(=O)O)cc1)/C(=C\C=C\c1ccccc1)NC(=O)c1ccccc1Cl | > 12.5 µM | 3.5 µM | inactive | 7.94 µM | > 12.5 µM | inactive
11 | Cc1cc(N/N=C/c2ccccc2)nc(NCc2ccccc2)n1 | > 12.5 µM | 10.9 µM | > 12.5 µM (inactive) | > 12.5 µM | > 12.5 µM | inactive
12 | CCN(CC)c1ccc(NC(=O)Nc2ccccc2)cc1 | > 12.5 µM | 8.27 µM | inactive | > 12.5 µM | 10.9 µM | inactive
13 | CCCC1(CCC)C(=O)NC(=NCc2ccccc2)NC1=O | > 12.5 µM | > 12.5 µM | > 12.5 µM (inactive) | > 12.5 µM | > 12.5 µM | > 12.5 µM (inactive)
14 | CCSc1ccc(-c2ccc(C)cc2)nn1 | > 12.5 µM | 7.07 µM | inactive | > 12.5 µM | 8.12 µM | inactive
15 | CC1(Cc2ccc(OC(F)(F)F)cc2)C(=O)Nc2ccc(S(=O)(=O)NC3CCCCC3)cc21 (stereo not given) | > 12.5 µM | > 12.5 µM | inactive | > 12.5 µM | 12.3 µM | > 12.5 µM (inactive)
16 | CCOC(=O)c1sc(NC(=O)c2cc(-c3ccccc3C)nc3ccccc23)c(C#N)c1C | > 12.5 µM | > 12.5 µM | > 12.5 µM (inactive) | > 12.5 µM | > 12.5 µM | > 12.5 µM (inactive)
17 | CCOc1ccc2nc(NC(=O)c3cccc(-c4cc5ccccc5oc4=O)c3)sc2c1 | > 12.5 µM | > 12.5 µM | > 12.5 µM (inactive) | > 12.5 µM | > 12.5 µM | > 12.5 µM (inactive)
18 | O=C(Oc1c(CN2CCOCC2)cc(Cl)c2cccnc12)c1cccs1 | > 12.5 µM | 6.75 µM | > 12.5 µM (inactive) | > 12.5 µM | > 12.5 µM | inactive
19 | O=C(NNC(=O)c1cc(OCC(F)(F)F)ccc1OCC(F)(F)F)c1ccc(Cl)c(Cl)c1 | > 12.5 µM | > 12.5 µM | > 12.5 µM (inactive) | > 12.5 µM | > 12.5 µM | > 12.5 µM (inactive)
20 | COc1ccc(/C(C)=N/Nc2nncc3ccccc23)cc1 | 7.33 µM | > 12.5 µM | > 12.5 µM (inactive) | > 12.5 µM | > 12.5 µM | inactive
